According to US20100190794A1, “Herbicidally Active Composition” (BASF SE, priority 2007, published 2010):

Tests used:
LAMPU = test: greenhouse test, pre-emergence treatment; format: in vivo, Lamium purpureum; conditions: 32 g/ha a.s., Use Example 21
Text: (§1) The culture containers used were plastic pots containing loamy sand with approximately 3.0% of humus as substrate. The seeds of the test plants were sown separately for each species.
(§2) For the pre-emergence treatment, the active compounds, suspended or emulsified in water, were applied directly after sowing by means of finely distributing nozzles. The containers were irrigated gently to promote germination and growth and subsequently covered with transparent plastic hoods until the plants had rooted. This cover caused uniform germination of the test plants unless this was adversely affected by the active compounds.
(§3) Depending on the species, the plants were kept at 10-25° C. and 20-35° C., respectively. The test period extended over 2 to 4 weeks. During this time, the plants were tended and their response to the individual treatments was evaluated.
(§4) Evaluation was carried out using a scale from 0 to 100. 100 means no emergence of the plants, or complete destruction of at least the above-ground parts, and 0 means no damage or normal course of growth. Good herbicidal activity is given at values of at least 70, and very good herbicidal activity is given at values of at least 85.
(§5) The respective stated components A and B, and if appropriate, C were formulated as a 5% by weight or 10% by weight strength emulsion concentrate or a commercially available formulation of component B was used and, with addition of the amount of solvent system, introduced into the spray liquor used for applying the active compound. In the examples, the solvent used was water.
(§6) The test period extended over 20 or 21 days. During this time, the plants were tended, and their reactions to the treatment with active compound was monitored.
(§7) What was evaluated was the damage by the chemical compositions using a scale of from 0 to 100%, in comparison to the untreated control plants. 0 means no damage, and 100 means complete destruction of the plants.
(§8) In the examples below, using the method of S. R. Colby (1967) “Calculating synergistic and antagonistic responses of herbicide combinations”, Weeds 15, p. 22 ff., the value E, which is expected if the activity of the individual active compounds is only additive, was calculated.
(§9) where X=percent activity using active compound A at an application rate a; Y=percent activity using active compound B at an application rate b; E=expected activity (in %) by A+B at application rates a+b.
(§10) If the value found in experiments is higher than the value E calculated according to Colby, a synergistic effect is present.

LOLMU = test: greenhouse test, pre-emergence treatment; format: in vivo, Lolium multiflorum
Text: as §1, §2, §3, §4, §5, §6, §7, §8, §9, §10

DIGSA = test: greenhouse test, post-emergence treatment; format: in vivo, Digitaria sanguinalis; conditions: 125 g/ha a.s., Use Example 18
Description: as §1
(§11) For the post-emergence treatment, the test plants were grown to a plant height of from 3 to 15 cm, depending on the plant habit, and only then treated with the active compounds which had been suspended or emulsified in water. To this end, the test plants were either sown directly and grown in the same containers, or they were first grown separately as seedlings and transplanted into the test containers a few days prior to treatment.
as §3
as §4, with “85. […]” for “85.”
as §6
What was evaluated was the damage by the chemical compositions using a scale of from 0 to 100%, in comparison to the untreated control plants. […]
In the examples below, using the method of S. R. Colby (1967) “Calculating synergistic and antagonistic responses of herbicide combinations”, Weeds 15, p. 22 ff., the value E, which is expected if the activity of the individual active compounds is only additive, was calculated. […]
as §10

ALOMY = test: greenhouse test, pre-emergence treatment; format: in vivo, Alopecurus myosuroides
Text: as §1, §2, §3, §4, §5, §6, §7, §8, §9, §10

SETVI = test: greenhouse test, post-emergence treatment; format: in vivo, Setaria viridis; conditions: 125 g/ha a.s., Use Example 18
Description: as §1, §11, §3, §4, §5, §6, §7, §8, §9, §10

APESV = test: greenhouse test, pre-emergence treatment; format: in vivo, Apera spica-venti; conditions: 32 g/ha a.s., Use Example 21
Text: as §1, §2, §3, §4, §5, §6, §7, §8, §9, §10

SMILES: CC(C)N(C(=O)COc1nnc(C(F)(F)F)s1)c1ccc(F)cc1 [Flufenacet, reference compound]
- Herbicidal action in % after 20 days against LAMPU (LAMPU): 20%
- Herbicidal action in % after 20 days against LOLMU (LOLMU; 32 g/ha a.s., Use Example 21): 65%
- Herbicidal action in % after 20 days against LOLMU (LOLMU; 62.5 g/ha a.s., Use Example 13): 40%
- Herbicidal action in % after 20 days against LOLMU (LOLMU; 125 g/ha a.s., Use Example 13): 70%
- Herbicidal action in % after 20 days against DIGSA (DIGSA): 75%
- Herbicidal action in % after 20 days against ALOMY (ALOMY; 32 g/ha a.s., Use Example 21): 70%
- Herbicidal action in % after 20 days against ALOMY (ALOMY; 62.5 g/ha a.s., Use Example 13): 75%
- Herbicidal action in % after 20 days against ALOMY (ALOMY; 125 g/ha a.s., Use Example 13): 90%
- Herbicidal action in % after 20 days against SETVI (SETVI): 70%
- Herbicidal action in % after 20 days against APESV (APESV): 95%
